The record followed here is patent US20230365559A1, “NOVEL AMINOPYRIDINES AND THEIR USE IN TREATING CANCER” (priority 2020, published 2023).

One experiment deals with human PI3Kα (p110α/p85α) (Homo sapiens, UniProt P42336). Description: Inhibition of PI3Kα kinase activity, ADP-Glo Assay (Reaction Biology). Format: biochemical. As to conditions: 10 μM ATP; mean of two replicates; Table 12; read-out: Inhibition of kinase activity (as IC50) PICK.
Another experiment addresses human DNA-PK (Homo sapiens, UniProt P78527). Nature of the experiment: Inhibition of DNA-PKcs kinase activity, HotSpot assay (Reaction Biology), [γ-33P]-ATP phosphorylation of peptide substrate. Format: biochemical. The note with it: 10 μM ATP, 10 μg/ml DNA; mean of two replicates; Table 12; read-out: Inhibition of kinase activity (as IC50) DNA-PK (converted).
For experiment [1], the system named is UT-SCC-54C cells. Nature of the experiment: Radiosensitisation of UT-SCC-54C HNSCC cells, regrowth (sulforhodamine B) assay, oxic (Table 16). Format: cell-based, human. As to conditions: for IC50: Homo sapiens, read-out: IC50; for S50: compound in combination with 3 Gy of radiation, 50% inhibition of regrowth fraction, UT-SCC-54C; for S50 / radiosensitisation / differential growth inhibition of UT-SCC-54C cells: oxic; for radiosensitisation / differential growth inhibition of UT-SCC-54C cells: 0 or 3 Gy, regrowth assay.

Experiment [2] concerns UT-SCC-54C cells. Nature of the experiment: Radiosensitisation of UT-SCC-54C HNSCC cells, clonogenic survival, oxic and anoxic (Table 18). Format: cell-based, human. As to conditions: for Plating efficiency drug/no drug: no radiation; for sensitisation of UT-SCC-54C cells selectively under anoxia: oxic vs anoxic, clonogenic survival, FIGS. 9 and 10.

Molecules are shown by their SMILES.

human PI3Kα (p110α/p85α), sequence (P42336 whole entry): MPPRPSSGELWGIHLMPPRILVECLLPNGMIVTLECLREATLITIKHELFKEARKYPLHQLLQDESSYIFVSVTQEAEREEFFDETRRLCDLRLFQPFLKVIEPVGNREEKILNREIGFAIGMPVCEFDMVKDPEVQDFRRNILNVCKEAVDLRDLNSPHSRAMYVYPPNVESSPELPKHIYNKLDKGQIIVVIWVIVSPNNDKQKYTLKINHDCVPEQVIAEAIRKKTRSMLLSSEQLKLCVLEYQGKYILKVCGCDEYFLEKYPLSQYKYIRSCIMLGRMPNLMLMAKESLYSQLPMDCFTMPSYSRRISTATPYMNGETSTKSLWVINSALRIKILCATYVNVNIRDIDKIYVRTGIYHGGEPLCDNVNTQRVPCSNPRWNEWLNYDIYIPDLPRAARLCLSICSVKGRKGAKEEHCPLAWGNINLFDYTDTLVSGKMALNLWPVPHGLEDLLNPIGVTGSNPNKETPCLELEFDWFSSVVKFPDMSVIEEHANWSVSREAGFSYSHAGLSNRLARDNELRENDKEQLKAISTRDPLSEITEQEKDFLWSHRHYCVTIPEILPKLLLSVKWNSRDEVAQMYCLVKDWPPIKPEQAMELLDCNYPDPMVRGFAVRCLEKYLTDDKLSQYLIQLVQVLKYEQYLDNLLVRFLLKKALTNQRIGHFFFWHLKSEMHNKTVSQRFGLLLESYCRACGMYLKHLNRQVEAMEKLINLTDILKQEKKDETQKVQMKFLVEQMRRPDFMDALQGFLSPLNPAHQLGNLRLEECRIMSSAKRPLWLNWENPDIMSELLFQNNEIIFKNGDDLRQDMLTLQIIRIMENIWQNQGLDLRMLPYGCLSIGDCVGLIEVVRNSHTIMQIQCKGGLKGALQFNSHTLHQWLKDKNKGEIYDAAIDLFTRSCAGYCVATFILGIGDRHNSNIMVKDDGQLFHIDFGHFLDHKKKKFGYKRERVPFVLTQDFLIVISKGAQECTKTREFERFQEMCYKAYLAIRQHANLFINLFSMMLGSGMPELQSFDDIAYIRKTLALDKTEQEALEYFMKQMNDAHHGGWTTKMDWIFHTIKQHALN
human PI3Kα (p110α/p85α), sequence (P27986 whole entry partner): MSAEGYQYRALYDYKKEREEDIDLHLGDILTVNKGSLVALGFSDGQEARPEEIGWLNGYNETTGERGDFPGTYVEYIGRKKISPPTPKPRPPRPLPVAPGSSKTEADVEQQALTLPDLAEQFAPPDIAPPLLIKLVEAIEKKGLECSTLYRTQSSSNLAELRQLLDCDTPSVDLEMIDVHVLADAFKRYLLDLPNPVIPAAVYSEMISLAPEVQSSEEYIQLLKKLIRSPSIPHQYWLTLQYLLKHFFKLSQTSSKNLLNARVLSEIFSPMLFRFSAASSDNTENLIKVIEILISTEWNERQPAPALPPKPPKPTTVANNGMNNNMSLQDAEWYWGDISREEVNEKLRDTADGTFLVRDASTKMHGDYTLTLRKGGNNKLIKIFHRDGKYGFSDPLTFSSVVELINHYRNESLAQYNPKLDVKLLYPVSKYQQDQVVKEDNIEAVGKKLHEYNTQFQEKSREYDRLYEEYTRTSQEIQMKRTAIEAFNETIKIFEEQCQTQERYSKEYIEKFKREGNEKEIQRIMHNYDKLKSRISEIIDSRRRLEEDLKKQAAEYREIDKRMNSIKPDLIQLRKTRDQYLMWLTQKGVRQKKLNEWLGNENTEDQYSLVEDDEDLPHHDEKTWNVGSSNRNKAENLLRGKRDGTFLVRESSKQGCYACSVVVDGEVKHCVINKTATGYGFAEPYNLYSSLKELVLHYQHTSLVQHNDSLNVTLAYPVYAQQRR

On to `COc1ccc(-n2c(=O)n(C)c3cnc(Nc4ccc(Cl)cc4C)cc32)cc1` [Compound 196, 6-((4-Chloro-2-methylphenyl)amino)-1-(4-methoxyphenyl)-3-methyl-1,3-dihydro-2H-imidazo[4,5-c]pyridin-2-one], for which the IC50 was 0.237 µM on human PI3Kα (p110α/p85α), 0.00027 µM on human DNA-PK and more than 10 µM with UT-SCC-54C cells [1]. Besides, the “S50” value in the experiment on UT-SCC-54C cells [1] stood at 0.68 µM.
With `COc1ccc(-n2c(=O)n(C)c3cnc(N(C(=O)OCc4cnc([N+](=O)[O-])n4C)c4ccc(OC)cc4C)cc32)cc1` [Compound 259, (1-Methyl-2-nitro-1H-imidazol-5-yl)methyl (4-methoxy-2-methylphenyl)(1-(4-methoxyphenyl)-3-methyl-2-oxo-2,3-dihydro-1H-imidazo[4,5-c]pyridin-6-yl)carbamate], in the experiment with UT-SCC-54C cells [1], the IC50 is more than 10 µM, the “S50” value is more than 10 µM and the “radiosensitisation / differential growth inhibition of UT-SCC-54C cells” value is “did not display any differential growth inhibition”.
As for `COc1ccc(N(C(=O)OCc2ccccc2)c2cc3c(cn2)n(C)c(=O)n3C2CCN(C(=O)OC(C)(C)C)CC2)c(C)c1` [Compound 154, tert-Butyl 4-(6-(((Benzyloxy)carbonyl)(4-methoxy-2-methylphenyl)amino)-3-methyl-2-oxo-2,3-dihydro-1H-imidazo[4,5-c]pyridin-1-yl)piperidine-1-carboxylate], in the experiment with UT-SCC-54C cells [1], the IC50 is more than 10 µM and the “S50” value stood at 2.06 µM.
As to `Cc1cc(Cl)ccc1N(C(=O)OCc1ccccc1)c1cc2c(cn1)n(C)c(=O)n2C1CCOCC1` [Compound 134, Benzyl (4-Chloro-2-methylphenyl)(3-methyl-2-oxo-1-(tetrahydro-2H-pyran-4-yl)-2,3-dihydro-1H-imidazo[4,5-c]pyridin-6-yl)carbamate], the IC50 at human PI3Kα (p110α/p85α) and at human DNA-PK was more than 10 µM each time.
Turning to `Cc1cc(OC(C)c2cnc([N+](=O)[O-])n2C)ccc1Nc1cc2c(cn1)n(C)c(=O)n2C1CCOCC1` (stereo not drawn) [Compound 238, 3-Methyl-6-((2-methyl-4-(1-(1-methyl-2-nitro-1H-imidazol-5-yl)ethoxy)phenyl)amino)-1-(tetrahydro-2H-pyran-4-yl)-1,3-dihydro-2H-imidazo[4,5-c]pyridin-2-one], in the experiment on UT-SCC-54C cells [2] (0% O2, compound conc 1 μM), the “D1 (radiation dose for 1% surviving fraction)” value worked out at 15.0 Gy, the “D10 (radiation dose for 10% surviving fraction)” value is reported as 8.46 Gy, the “SER1 (sensitiser enhancement ratio at 1% surviving fraction)” value is reported as 1.44 and the “SER10 (sensitiser enhancement ratio at 10% surviving fraction)” value is given as 1.65. Also, the “Plating efficiency drug/no drug” value in the experiment with UT-SCC-54C cells [2] (0% O2, compound conc 1 μM) is listed as 1.02. Moreover, the “sensitisation of UT-SCC-54C cells selectively under anoxia” value in the experiment with UT-SCC-54C cells [2] is “provide sensitisation of UT-SCC-54C cells selectively under anoxia”. In addition, in the experiment with UT-SCC-54C cells [1], the IC50 is more than 10 µM, the “S50” value is more than 10 µM and the “radiosensitisation / differential growth inhibition of UT-SCC-54C cells” value was “did not display any differential growth inhibition”.
On to `Cn1c(=O)n(-c2ccc(C(C)(C)C#N)cc2)c2cc(Nc3ccc4nccnc4c3)ncc21` [Compound 214, 2-Methyl-2-(4-(3-methyl-2-oxo-6-(quinoxalin-6-ylamino)-2,3-dihydro-1H-imidazo[4,5-c]pyridin-1-yl)phenyl)propanenitrile], for which the IC50 on human DNA-PK was 0.043 µM.
For the compound `Cc1cc(Cl)ccc1Nc1cc2c(cn1)n(C)c(=O)n2-c1ccc(C(C)(C)C#N)cc1` [Compound 212, 2-(4-(6-((4-Chloro-2-methylphenyl)amino)-3-methyl-2-oxo-2,3-dihydro-1H-imidazo[4,5-c]pyridin-1-yl)phenyl)-2-methylpropanenitrile], the results for the IC50 on human PI3Kα (p110α/p85α), on human DNA-PK and with UT-SCC-54C cells [1] were 0.803 µM, less than 0.00051 µM and more than 10 µM, respectively. The “S50” value in the experiment on UT-SCC-54C cells [1] was 0.51 µM.
For the compound `Cc1ccncc1Nc1cc2c(cn1)n(C)c(=O)n2C1CCCC1` [Compound 78, 1-Cyclopentyl-3-methyl-6-((4-methylpyridin-3-yl)amino)-1,3-dihydro-2H-imidazo[4,5-c]pyridin-2-one], in the experiment with UT-SCC-54C cells [1], the IC50 is more than 10 µM and the “S50” value stood at 4.09 µM.
On to `COc1ccc(-n2c(=O)n(C)c3cnc(Nc4ccc(OC)cc4C)cc32)cc1` [Compound 195, 6-((4-Methoxy-2-methylphenyl)amino)-1-(4-methoxyphenyl)-3-methyl-1,3-dihydro-2H-imidazo[4,5-c]pyridin-2-one], for which the “D1 (radiation dose for 1% surviving fraction)” value is reported as 1.53 Gy in the experiment on UT-SCC-54C cells [2] (20% O2, compound conc 0.33 μM); 2.75 Gy in the experiment on UT-SCC-54C cells [2] (20% O2, compound conc 1 μM); 3.90 Gy in the experiment on UT-SCC-54C cells [2] (20% O2, compound conc 3 μM). Also, the “D10 (radiation dose for 10% surviving fraction)” value with UT-SCC-54C cells [2] (20% O2, compound conc 0.33 μM) was 4.67 Gy; with UT-SCC-54C cells [2] (20% O2, compound conc 1 μM), 2.60 Gy; in the experiment with UT-SCC-54C cells [2] (20% O2, compound conc 3 μM) it was 1.83 Gy. Moreover, in the experiment with UT-SCC-54C cells [2] (UT-SCC-54C, FIG. 8 and Table 18), the “radiosensitisation, clonogenic survival endpoint” value was “concentration-dependent increases in radiosensitisation”.
As for `COc1ccc(-n2c(=O)n(C)c3cnc(Nc4ccc(OCc5ccccc5)cc4C)cc32)cc1` [Compound 199, 6-((4-(Benzyloxy)-2-methylphenyl)amino)-1-(4-methoxyphenyl)-3-methyl-1,3-dihydro-2H-imidazo[4,5-c]pyridin-2-one], the IC50 at human DNA-PK was 0.055 µM.
On to `Cn1c(=O)n(C2CCCC2)c2cc(Nc3ccc4ncsc4c3)ncc21` [Compound 70, 6-(Benzo[d]thiazol-6-ylamino)-1-cyclopentyl-3-methyl-1,3-dihydro-2H-imidazo[4,5-c]pyridin-2-one], for which, in the experiment on UT-SCC-54C cells [1], the IC50 was more than 10 µM and the “S50” value is 2.62 µM.
Regarding `COc1ccc(N(C(=O)OC(C)c2cnc([N+](=O)[O-])n2C)c2cc3c(cn2)n(C)c(=O)n3C2CCOCC2)c(C)c1` (stereo not drawn) [Compound 250, 1-(1-Methyl-2-nitro-1H-imidazol-5-yl)ethyl (4-methoxy-2-methylphenyl)(3-methyl-2-oxo-1-(tetrahydro-2H-pyran-4-yl)-2,3-dihydro-1H-imidazo[4,5-c]pyridin-6-yl)carbamate], in the experiment on UT-SCC-54C cells [2] (0% O2, compound conc 1 μM), the “D1 (radiation dose for 1% surviving fraction)” value was 10.83 Gy, the “D10 (radiation dose for 10% surviving fraction)” value is listed as 5.78 Gy, the “SER1 (sensitiser enhancement ratio at 1% surviving fraction)” value stood at 1.87 and the “SER10 (sensitiser enhancement ratio at 10% surviving fraction)” value came to 2.09. Moreover, the “Plating efficiency drug/no drug” value in the experiment with UT-SCC-54C cells [2] (0% O2, compound conc 1 μM) turned out to be 0.98. Moreover, in the experiment with UT-SCC-54C cells [2], the “sensitisation of UT-SCC-54C cells selectively under anoxia” value is on record as “provide sensitisation of UT-SCC-54C cells selectively under anoxia”. In the experiment on UT-SCC-54C cells [1], the IC50 is more than 10 µM, the “S50” value was more than 10 µM and the “radiosensitisation / differential growth inhibition of UT-SCC-54C cells” value is on record as “did not display any differential growth inhibition”.
Consider `Cc1cc(OCc2ccccc2)ccc1Nc1cc2c(cn1)n(C)c(=O)n2C1CCOCC1` [Compound 124, 6-((4-(Benzyloxy)-2-methylphenyl)amino)-3-methyl-1-(tetrahydro-2H-pyran-4-yl)-1,3-dihydro-2H-imidazo[4,5-c]pyridin-2-one], for which the figures for the IC50 at human PI3Kα (p110α/p85α) and on human DNA-PK were 5.45 µM and 0.422 µM, respectively.
`Cc1cc(OCc2ncc([N+](=O)[O-])n2C)ccc1Nc1cc2c(cn1)n(C)c(=O)n2C1CCOCC1` [Compound 240, 3-Methyl-6-((2-methyl-4-((1-methyl-5-nitro-1H-imidazol-2-yl)methoxy)phenyl)amino)-1-(tetrahydro-2H-pyran-4-yl)-1,3-dihydro-2H-imidazo[4,5-c]pyridin-2-one]: in the experiment on UT-SCC-54C cells [1], the IC50 was more than 10 µM, the “S50” value was more than 10 µM and the “radiosensitisation / differential growth inhibition of UT-SCC-54C cells” value was “did not display any differential growth inhibition”.
